Results on three compounds are retold here after ChEMBL document CHEMBL4118098, “Discovery of DS28120313 as a potent orally active hepcidin production inhibitor: Design and optimization of novel 4,6-disubstituted indazole derivatives” (Bioorg Med Chem Lett, 2017).

The target of experiment [1] is Tyrosine-protein kinase Blk (Homo sapiens) (UniProt P51451). Nature of the experiment: Inhibition of BLK (unknown origin) at 0.164 uM relative to control.
Experiment [2] addresses ALK tyrosine kinase receptor (Homo sapiens) (UniProt Q9UM73). Nature of the experiment: Inhibition of ALK (unknown origin) at 0.164 uM relative to control.
Experiment [3] concerns the target Ephrin type-A receptor 3 (Homo sapiens) (UniProt P29320). Put plainly: Inhibition of EPHA3 (unknown origin) at 0.164 uM relative to control.
For experiment [4], the target named is Hepatocyte growth factor receptor (Homo sapiens) (UniProt P08581). Put plainly: Inhibition of MET (unknown origin) at 0.164 uM relative to control.
Experiment [5] has as its target Tyrosine-protein kinase Mer (Homo sapiens) (UniProt Q12866). Nature of the experiment: Inhibition of Mer (unknown origin) at 0.164 uM relative to control.
Experiment [6] relates to Epidermal growth factor receptor (Homo sapiens), P00533 [T790M]. Put plainly: Inhibition of EGFR T790M mutant (unknown origin) at 0.164 uM relative to control.
Chain of Epidermal growth factor receptor (Homo sapiens), P00533 [T790M] (P00533 whole entry T790M): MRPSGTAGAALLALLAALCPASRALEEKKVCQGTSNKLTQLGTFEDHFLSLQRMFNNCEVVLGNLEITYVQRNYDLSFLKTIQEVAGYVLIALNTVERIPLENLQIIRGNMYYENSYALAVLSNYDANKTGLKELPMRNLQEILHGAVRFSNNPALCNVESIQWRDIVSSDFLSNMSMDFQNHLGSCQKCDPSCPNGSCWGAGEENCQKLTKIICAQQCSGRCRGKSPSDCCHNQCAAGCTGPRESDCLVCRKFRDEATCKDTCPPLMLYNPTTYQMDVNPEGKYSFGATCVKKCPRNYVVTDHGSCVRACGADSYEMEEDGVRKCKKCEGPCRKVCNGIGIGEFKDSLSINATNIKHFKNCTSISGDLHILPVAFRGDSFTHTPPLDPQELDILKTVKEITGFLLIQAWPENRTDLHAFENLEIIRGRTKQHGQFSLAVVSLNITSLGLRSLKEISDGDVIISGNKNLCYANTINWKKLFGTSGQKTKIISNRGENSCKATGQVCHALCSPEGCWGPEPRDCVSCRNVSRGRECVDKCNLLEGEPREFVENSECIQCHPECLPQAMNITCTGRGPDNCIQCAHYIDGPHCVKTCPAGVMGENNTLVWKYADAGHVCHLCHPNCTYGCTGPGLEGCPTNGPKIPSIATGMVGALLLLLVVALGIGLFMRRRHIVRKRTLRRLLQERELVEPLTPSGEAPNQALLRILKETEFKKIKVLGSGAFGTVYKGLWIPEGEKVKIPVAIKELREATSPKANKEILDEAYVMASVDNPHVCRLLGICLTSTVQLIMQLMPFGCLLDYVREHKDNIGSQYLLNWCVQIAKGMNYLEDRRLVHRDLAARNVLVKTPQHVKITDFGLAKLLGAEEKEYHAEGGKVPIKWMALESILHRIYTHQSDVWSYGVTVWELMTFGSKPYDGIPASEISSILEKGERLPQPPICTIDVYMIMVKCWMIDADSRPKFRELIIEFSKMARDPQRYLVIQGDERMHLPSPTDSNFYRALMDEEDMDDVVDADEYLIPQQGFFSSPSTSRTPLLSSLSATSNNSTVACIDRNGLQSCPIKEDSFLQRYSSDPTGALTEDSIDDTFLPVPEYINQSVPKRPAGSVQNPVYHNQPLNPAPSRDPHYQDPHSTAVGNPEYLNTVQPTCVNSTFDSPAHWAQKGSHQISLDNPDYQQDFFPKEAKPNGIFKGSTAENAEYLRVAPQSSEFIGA
Experiment [7] concerns the target T1, Protein kinase C iota type (Homo sapiens) (UniProt P41743).
T1 sequence (whole entry): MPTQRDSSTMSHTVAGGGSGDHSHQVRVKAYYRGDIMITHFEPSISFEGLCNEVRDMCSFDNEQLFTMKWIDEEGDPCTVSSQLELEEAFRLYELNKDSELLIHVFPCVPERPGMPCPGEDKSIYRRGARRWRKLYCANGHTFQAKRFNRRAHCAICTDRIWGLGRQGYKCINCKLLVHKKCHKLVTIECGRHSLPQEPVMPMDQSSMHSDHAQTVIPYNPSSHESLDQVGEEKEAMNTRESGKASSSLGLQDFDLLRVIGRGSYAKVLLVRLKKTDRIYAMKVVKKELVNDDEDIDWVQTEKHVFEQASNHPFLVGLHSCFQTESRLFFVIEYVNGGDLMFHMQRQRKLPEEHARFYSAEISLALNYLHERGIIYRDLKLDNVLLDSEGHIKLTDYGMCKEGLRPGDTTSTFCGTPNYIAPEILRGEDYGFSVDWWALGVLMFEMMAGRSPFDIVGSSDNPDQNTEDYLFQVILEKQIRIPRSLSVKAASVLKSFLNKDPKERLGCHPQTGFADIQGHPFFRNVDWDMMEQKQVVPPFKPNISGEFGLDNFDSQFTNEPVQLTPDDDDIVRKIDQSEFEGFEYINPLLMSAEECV
Nature of the experiment: Inhibition of PKC-iota (unknown origin) at 0.164 uM relative to control.

Experiment [8] has as its target T2, cGMP-dependent protein kinase 1 (Homo sapiens) (UniProt Q13976).
T2 sequence (whole entry): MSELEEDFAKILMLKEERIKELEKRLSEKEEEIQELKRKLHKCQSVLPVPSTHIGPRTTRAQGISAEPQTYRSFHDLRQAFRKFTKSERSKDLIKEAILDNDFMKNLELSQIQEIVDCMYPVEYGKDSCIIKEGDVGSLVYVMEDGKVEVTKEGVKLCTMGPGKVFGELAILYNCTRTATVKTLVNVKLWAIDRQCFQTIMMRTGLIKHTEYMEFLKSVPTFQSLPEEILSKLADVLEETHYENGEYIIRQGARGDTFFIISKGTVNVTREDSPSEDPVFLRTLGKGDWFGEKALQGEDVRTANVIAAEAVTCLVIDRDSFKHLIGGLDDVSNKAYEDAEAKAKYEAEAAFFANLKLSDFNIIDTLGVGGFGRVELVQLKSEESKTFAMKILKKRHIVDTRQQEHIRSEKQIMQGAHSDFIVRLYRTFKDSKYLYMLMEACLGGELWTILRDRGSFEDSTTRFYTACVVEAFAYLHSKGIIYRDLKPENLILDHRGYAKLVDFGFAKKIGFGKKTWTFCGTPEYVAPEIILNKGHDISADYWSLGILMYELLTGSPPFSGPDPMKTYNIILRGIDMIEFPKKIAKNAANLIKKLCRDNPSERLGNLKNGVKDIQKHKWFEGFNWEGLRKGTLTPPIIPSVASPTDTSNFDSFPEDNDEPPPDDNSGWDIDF
Put plainly: Inhibition of PKG-alpha (unknown origin) at 0.164 uM relative to control.

Experiment [9] deals with Homeodomain-interacting protein kinase 1 (Homo sapiens) (UniProt Q86Z02). Put plainly: Inhibition of HIPK1 (unknown origin) at 0.164 uM relative to control.
Experiment [10] deals with Ribosomal protein S6 kinase alpha-4 (Homo sapiens) (UniProt O75676). Put plainly: Inhibition of MSK2 (unknown origin) at 0.164 uM relative to control.
Experiment [11] addresses Serine/threonine-protein kinase pim-2 (Homo sapiens) (UniProt Q9P1W9). Put plainly: Inhibition of PIM2 (unknown origin) at 0.45 uM relative to control.
The target in experiment [12] is Aurora kinase C (Homo sapiens) (UniProt Q9UQB9). Put plainly: Inhibition of AurC (unknown origin) at 0.45 uM relative to control.
Experiment [13] concerns the target Leukocyte tyrosine kinase receptor (Homo sapiens) (UniProt P29376). Put plainly: Inhibition of LTK (unknown origin) at 0.45 uM relative to control.
For experiment [14], the target named is MAP kinase-interacting serine/threonine-protein kinase 2 (Homo sapiens) (UniProt Q9HBH9). Nature of the experiment: Inhibition of MNK2 (unknown origin) at 0.45 uM relative to control.
The target of experiment [15] is Tyrosine-protein kinase Fes/Fps (Homo sapiens) (UniProt P07332). Nature of the experiment: Inhibition of FES (unknown origin) at 0.45 uM relative to control.
The target of experiment [16] is Ephrin type-A receptor 2 (Homo sapiens) (UniProt P29317). Nature of the experiment: Inhibition of EPHA2 (unknown origin) at 0.19 uM relative to control.
Chain of Ephrin type-A receptor 2 (Homo sapiens) (P29317 whole entry): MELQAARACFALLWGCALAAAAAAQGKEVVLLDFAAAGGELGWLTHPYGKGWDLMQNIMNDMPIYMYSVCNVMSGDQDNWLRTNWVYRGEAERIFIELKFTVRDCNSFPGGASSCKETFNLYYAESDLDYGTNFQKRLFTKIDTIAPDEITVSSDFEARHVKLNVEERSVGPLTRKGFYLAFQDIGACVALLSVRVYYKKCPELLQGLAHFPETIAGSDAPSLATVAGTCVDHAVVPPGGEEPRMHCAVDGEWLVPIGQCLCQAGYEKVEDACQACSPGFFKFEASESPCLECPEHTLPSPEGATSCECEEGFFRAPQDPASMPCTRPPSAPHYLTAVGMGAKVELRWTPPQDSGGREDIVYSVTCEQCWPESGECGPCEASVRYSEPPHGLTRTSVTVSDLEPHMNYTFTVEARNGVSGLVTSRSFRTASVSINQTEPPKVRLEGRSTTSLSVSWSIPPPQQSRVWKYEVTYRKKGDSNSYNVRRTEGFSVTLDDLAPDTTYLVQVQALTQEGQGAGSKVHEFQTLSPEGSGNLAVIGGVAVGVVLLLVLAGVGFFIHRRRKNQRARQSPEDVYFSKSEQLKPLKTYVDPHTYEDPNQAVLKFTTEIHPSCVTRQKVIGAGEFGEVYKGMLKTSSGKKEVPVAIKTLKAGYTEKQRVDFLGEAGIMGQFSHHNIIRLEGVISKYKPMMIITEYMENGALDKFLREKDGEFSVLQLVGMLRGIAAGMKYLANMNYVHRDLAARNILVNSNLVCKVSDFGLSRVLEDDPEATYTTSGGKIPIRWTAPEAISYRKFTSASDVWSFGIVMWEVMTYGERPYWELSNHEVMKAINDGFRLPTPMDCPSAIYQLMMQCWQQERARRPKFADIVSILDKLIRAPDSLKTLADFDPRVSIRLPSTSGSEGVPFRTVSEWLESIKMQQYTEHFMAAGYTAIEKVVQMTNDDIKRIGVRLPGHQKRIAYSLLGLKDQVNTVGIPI
The test system of experiment [17] is Platelet-derived growth factor receptor alpha (Homo sapiens), P16234 [V561D]. Nature of the experiment: Inhibition of PDGFRA V561D mutant (unknown origin) at 0.19 uM relative to control.
Experiment [18] concerns Hepatocyte growth factor receptor (Homo sapiens), P08581 [M1250T]. Put plainly: Inhibition of MET M1250T mutant (unknown origin) at 0.19 uM relative to control.
Chain of Hepatocyte growth factor receptor (Homo sapiens), P08581 [M1250T] (P08581 whole entry M1250T): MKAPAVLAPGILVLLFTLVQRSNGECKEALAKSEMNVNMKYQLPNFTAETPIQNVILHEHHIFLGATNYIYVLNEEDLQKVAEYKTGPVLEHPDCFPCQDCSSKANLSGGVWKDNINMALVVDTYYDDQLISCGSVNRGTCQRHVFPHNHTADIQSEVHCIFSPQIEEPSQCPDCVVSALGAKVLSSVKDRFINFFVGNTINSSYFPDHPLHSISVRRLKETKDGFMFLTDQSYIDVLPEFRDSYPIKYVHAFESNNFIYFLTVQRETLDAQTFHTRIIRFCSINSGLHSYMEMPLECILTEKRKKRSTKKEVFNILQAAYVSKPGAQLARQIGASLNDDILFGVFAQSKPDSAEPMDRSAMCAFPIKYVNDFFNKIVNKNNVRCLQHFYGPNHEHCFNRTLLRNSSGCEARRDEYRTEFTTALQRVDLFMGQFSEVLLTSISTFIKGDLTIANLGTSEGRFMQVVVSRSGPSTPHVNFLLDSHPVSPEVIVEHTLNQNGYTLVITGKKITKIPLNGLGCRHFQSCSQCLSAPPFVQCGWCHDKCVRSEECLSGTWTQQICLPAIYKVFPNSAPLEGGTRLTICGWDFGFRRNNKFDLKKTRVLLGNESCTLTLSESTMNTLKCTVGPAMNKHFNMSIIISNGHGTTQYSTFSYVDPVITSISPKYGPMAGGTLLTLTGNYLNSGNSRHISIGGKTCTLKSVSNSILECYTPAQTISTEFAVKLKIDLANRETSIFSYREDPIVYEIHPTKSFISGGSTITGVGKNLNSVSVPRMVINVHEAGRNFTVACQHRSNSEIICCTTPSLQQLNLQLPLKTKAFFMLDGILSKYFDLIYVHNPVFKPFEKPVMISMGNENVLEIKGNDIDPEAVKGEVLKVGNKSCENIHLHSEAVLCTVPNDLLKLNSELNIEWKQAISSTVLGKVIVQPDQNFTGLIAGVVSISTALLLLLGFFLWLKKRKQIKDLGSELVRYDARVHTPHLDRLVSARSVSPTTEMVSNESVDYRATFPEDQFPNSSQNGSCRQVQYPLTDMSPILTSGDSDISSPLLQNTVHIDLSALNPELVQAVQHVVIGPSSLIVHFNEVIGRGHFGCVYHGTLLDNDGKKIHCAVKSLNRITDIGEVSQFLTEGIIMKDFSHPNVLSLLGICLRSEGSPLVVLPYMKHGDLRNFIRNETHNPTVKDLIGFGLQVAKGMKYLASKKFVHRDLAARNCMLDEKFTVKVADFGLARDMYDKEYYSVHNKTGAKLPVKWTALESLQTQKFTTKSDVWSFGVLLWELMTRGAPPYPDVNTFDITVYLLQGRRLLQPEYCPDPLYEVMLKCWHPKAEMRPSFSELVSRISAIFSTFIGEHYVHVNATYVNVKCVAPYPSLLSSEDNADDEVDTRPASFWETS
Experiment [19] has as its target Serine/threonine-protein kinase D2 (Homo sapiens) (UniProt Q9BZL6). Put plainly: Inhibition of PKD2 (unknown origin) at 0.19 uM relative to control.
Experiment [20] has as its target Mitogen-activated protein kinase 1 (Homo sapiens) (UniProt P28482). Put plainly: Inhibition of Erk2 (unknown origin) at 0.19 uM relative to control.
Experiment [21] has as its target Macrophage colony-stimulating factor 1 receptor (Homo sapiens) (UniProt P07333). Nature of the experiment: Inhibition of FMS (unknown origin) at 0.19 uM relative to control.
Experiment [22] addresses Insulin receptor (Homo sapiens) (UniProt P06213). Put plainly: Inhibition of INSR (unknown origin) at 0.19 uM relative to control.
Experiment [23] concerns the target Serine/threonine-protein kinase MARK2 (Homo sapiens) (UniProt Q7KZI7). Put plainly: Inhibition of MARK2 (unknown origin) at 0.19 uM relative to control.
The target of experiment [24] is MAP kinase-interacting serine/threonine-protein kinase 1 (Homo sapiens) (UniProt Q9BUB5). Nature of the experiment: Inhibition of MNK1 (unknown origin) at 0.19 uM relative to control.
Chain of MAP kinase-interacting serine/threonine-protein kinase 1 (Homo sapiens) (Q9BUB5 whole entry, looked up): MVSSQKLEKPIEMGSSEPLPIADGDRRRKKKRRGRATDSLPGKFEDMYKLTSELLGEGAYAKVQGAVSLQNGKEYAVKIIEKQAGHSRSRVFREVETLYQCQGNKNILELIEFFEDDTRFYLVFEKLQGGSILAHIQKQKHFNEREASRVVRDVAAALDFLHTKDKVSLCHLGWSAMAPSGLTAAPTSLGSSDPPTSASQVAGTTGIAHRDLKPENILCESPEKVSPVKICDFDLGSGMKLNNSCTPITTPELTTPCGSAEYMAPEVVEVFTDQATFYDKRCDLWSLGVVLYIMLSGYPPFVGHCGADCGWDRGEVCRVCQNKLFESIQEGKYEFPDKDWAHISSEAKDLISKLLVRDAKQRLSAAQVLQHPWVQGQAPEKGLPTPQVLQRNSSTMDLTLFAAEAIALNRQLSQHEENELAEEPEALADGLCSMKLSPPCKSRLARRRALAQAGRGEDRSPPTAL

Structures are written as SMILES.

Chain of Leukocyte tyrosine kinase receptor (Homo sapiens) (P29376 whole entry): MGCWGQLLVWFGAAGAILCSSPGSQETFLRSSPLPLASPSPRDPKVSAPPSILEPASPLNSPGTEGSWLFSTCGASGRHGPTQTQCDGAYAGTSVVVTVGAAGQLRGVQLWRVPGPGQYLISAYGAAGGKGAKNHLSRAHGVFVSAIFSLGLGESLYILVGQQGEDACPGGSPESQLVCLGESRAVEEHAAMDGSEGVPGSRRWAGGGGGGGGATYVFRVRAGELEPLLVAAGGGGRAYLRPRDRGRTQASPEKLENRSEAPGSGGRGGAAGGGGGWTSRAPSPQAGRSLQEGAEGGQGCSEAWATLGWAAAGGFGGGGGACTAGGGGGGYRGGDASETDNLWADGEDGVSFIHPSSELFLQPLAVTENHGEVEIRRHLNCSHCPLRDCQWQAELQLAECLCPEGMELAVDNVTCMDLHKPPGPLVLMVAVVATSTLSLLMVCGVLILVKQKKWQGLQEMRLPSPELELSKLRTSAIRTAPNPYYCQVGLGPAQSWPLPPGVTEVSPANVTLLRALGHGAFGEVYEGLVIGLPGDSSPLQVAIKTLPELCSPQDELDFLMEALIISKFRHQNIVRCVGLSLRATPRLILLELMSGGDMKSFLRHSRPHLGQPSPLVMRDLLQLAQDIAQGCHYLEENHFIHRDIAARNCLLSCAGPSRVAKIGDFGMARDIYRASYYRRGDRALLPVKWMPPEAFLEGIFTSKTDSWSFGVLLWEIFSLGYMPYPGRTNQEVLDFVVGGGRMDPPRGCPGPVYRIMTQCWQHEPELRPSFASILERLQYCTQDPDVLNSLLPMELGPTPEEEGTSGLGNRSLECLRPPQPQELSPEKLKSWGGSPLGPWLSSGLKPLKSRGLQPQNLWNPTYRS

Regarding `COC(=O)Nc1cc(-c2c(C3CC3)n[nH]c2C)cc2[nH]ncc12`, the inhibition is 6.7% in [1]; 4.3% in experiment [2]; -6.7% in [3]; 0% in experiment [4]; 6% in [5]; 1.3% in [6]. Also, the inhibition was -2.3% in experiment [7], 0.7% in experiment [8], 0% in experiment [9] and 4% in experiment [10].
Take `Cc1n[nH]c(C)c1-c1ccc2c(NC(=O)c3ccc(N4CCN(C)CC4)cc3)n[nH]c2c1`: the inhibition is -1.7% in experiment [11]; -1% in experiment [12]; 0% in [13]; -1% in experiment [14]; -3.3% in experiment [15].
With `Cc1[nH]nc(C2CC2)c1-c1ccc2c(-c3ccc(N4CCN(C)CC4)nc3)n[nH]c2c1`, the inhibition in experiment [16] is -0.3%; in [17], 63.3%; in experiment [18], 2%; in experiment [19], 9%; in experiment [20], 4.7%; in [21], 21.3%. In addition, the inhibition in [22] was 1.7%; in [23] it was -5.3%; in [24], -1%.

For orientation: inhibition means the relative decrease from the control value, in per cent.
